For series [1] the following is noted: 298.15 K; 101.33 kPa; Liquid; Pycnometric method.
Series [2] can be described thus: refractive index (Na D-line) (dimensionless). The settings on record: 298.15 K; 101.33 kPa; Liquid; Standard Abbe refractometry.

Drawing on the NIST ThermoML archive (doi:10.1016/j.jct.2008.10.010), this text covers mass density and refractive index for one compound.

Numbers after ± are expanded uncertainties.

For orientation: mass density means the mass of a sample divided by its volume. As usually defined, the refractive index is a measure of how strongly the sample bends light. `CCCCCCC` [heptane]: in series [1], the mass density was found to be 679.53 ± 0.65 kg/m3. For the same compound, the refractive index in series [2] is recorded as 1.3852 ± 0.0008.
